According to patent publication US11578055B2, “Triazacyclododecansulfonamide (“TCD”)-based protein secretion inhibitors” (KEZAR LIFE SCIENCES, priority 2018, dated 2023):

Tested on: B16F10 cells
Experiment: Efficacy study: tumor growth and body weight in a B16F10 model
Format: in vivo, C57BL/6 mice
Details: B16F10 refractory model, once-a-week dosing, compared to anti-PD-1 therapy
Protocol: Efficacy Study: Effect of Compound A87 on Tumor Growth and Body Weight in a B16F10 Model Comparted to Anti-PD-1 Therapy.
Female C57BL/6 mice (7-8 week old) were injected in the flank subcutaneously with 5×10^6 B16F10 cells in 0.1 ml on Day 0. On Day 3, compound A87 formulated in 10% ETOH/10% Kolliphor EL was administered IV 30 mg/kg QW, IV 10 mg/kg D1D2, or IP 15 mg/kg QOD. Anti-PD1 antibody treatment (RMP1-14 from Bioxcell, 200 μg) was administered i.p. on a QOD×3 dose schedule. Tumor size was monitored with a digital caliper (Fowler) every 2-3 d until reaching a size of 1.5-2.0 cm and expressed as volume (length×width×height). B16F10, a melanoma line, was obtained from ATCC. C57/BL6 mice were purchased from Charles rivers laboratories.

Compound: C[C@H]1CN(S(=O)(=O)c2ccc(N(C)C)cc2)CCCN(CC2CCCCC2)CCCN(S(=O)(=O)N2CCc3cc(Cl)ccc3C2)C1 [A87]
- tumor growth inhibition: superior efficacy
